Values quoted from earlier work in patent US8828412B2, “Stable polyphenol containing ophthalmic emulsion for treating dry eyes” (Abbott Medical Optics Inc., priority 2009, dated 2014).

Settings: reported; species not stated

In the case of COc1cc(/C=C/C(=O)CC(=O)/C=C/c2ccc(O)c(OC)c2)ccc1O [curcumin], the oral bioavailability is listed as “about 60%”.
